# Test results: article PMC10461225, “Creation of a Peptide Antagonist of the GFRAL–RET Receptor Complex for the Treatment of GDF15-Induced Malaise” (Journal of Medicinal Chemistry, 2023)
# Square brackets hold non-standard residues; d marks the D form. Ends that are not written are not given here. Peptide text beside a SMILES is read from it. PEG2‑C4‑alkyne‑biotin = PEG2-C4-alkyne-modified biotin; Lys(N3) = [N-]=[N+]=NCCCC[C@H](N)C(=O)O; K‑azido = azido-modified lysine
# T1: Recombinant His-tagged human GFRAL (Ser19–Glu351) (human, UniProt Q6UXV0 19-351)
# T1 construct: GDNF family receptor alpha-like (GFRAL), human, extracellular domain S19-E351 as defined by UniProt Q6UXV0; also called GFRAL–ECD; GFRAL (S19–E351); source: bought: ACRO Biosystems (GFA-H52H3), expressed in HEK293 cells
# T1 sequence (looked up): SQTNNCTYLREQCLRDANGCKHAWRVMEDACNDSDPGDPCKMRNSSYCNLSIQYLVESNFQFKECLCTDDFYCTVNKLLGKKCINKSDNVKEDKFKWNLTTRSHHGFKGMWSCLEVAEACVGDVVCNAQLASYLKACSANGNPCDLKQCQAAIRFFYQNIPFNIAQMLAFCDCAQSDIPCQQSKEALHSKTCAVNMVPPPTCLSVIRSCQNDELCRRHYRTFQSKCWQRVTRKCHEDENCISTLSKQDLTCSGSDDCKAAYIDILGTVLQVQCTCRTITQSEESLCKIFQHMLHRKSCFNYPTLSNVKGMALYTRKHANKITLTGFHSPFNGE
# T2: Full-length human GFRAL on stably transfected HEK293 cells (human, UniProt Q6UXV0 19-394)
# T2 construct: GDNF family receptor alpha-like (GFRAL), human, full-length, overexpressed on HEK293 cells; also called GFRAL–HEK293 cells; GFRAL-expressing HEK293 cells; source: HEK293 cells stably overexpressing human GFRAL, bought: Creative Biogene (CSC-SC006226)
# T2 sequence (looked up): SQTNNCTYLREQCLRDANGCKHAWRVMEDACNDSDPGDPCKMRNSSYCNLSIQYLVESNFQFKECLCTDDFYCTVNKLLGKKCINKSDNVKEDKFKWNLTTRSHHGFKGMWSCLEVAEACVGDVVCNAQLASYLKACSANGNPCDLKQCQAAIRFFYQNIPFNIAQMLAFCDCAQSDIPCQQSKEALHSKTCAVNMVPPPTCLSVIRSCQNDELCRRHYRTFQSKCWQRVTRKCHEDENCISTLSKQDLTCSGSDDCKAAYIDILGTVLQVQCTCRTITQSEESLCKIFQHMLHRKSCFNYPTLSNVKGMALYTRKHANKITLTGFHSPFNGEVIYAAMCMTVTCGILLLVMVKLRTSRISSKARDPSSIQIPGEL
# B1: Biotinylated GRASP (peptide)
# peptide: T[K‑azido](PEG2‑C4‑alkyne‑biotin)EELIHAHADPMVLIQKTDTGVSLQTYD
# notes: GRASP peptide as m1, biotin on the azido-lysine at position 2; Held on the sensor through biotin-streptavidin (His-tagged streptavidin on a biotin sensor); also called biotin-conjugated GRASP; biotin-GRASP; source: synthetic peptide, conjugated to PEG2-C4-alkyne biotin, RP-HPLC purified (95%)
# B2: GRASPCy5 (peptide)
# peptide: TKEELIHAHADPMVLIQKTDTGVSLQTYD
# modifications: not fully specified (residue 2); printed as T(K-azido)EELIHAHADPMVLIQKTDTGVSLQTYD
# notes: GRASP peptide as m1, sulfo-Cy5 on the azido-lysine at position 2; also called sulfo-Cy5 GRASP conjugate; GRASP(K2)–fluorophore conjugate; source: synthetic peptide, conjugated to DBCO-Cy5, RP-HPLC purified (95%)
# B3: GRASP (K2-azido-modified 29-amino acid peptide) (peptide)
# peptide: T[K‑azido]EELIHAHADPMVLIQKTDTGVSLQTYD
# notes: designed peptide with GDF15-like loop regions; printed as T(K-azido)[residues removed]; In-house synthesis was on a Rink amide resin, which would give a C-terminal amide; also called GFRAL receptor antagonist; unlabeled GRASP; source: synthetic peptide (Genscript or in-house solid-phase synthesis), HPLC purified to >95%
# Key:
# [1] = test system: Sprague–Dawley rats
# Experimental: In a follow-up experiment, we evaluated responses to the gold standard antiemetic Ondansetron alone or in combination with GRASP to determine whether the combination would enhance the efficacy of the former compound in preventing CINV in rats.
# All systemic treatments were delivered by intraperitoneal (IP) injection.
# Rats (n = 98, 300–330 g) received IP injections of GRASP (100 nmol/kg), Ondansetron (2 mg/kg), both GRASP and Ondansetron together, or saline control […] before systemic administration of cisplatin. Six hours later, rats received a second injection of GRASP or vehicle control. Food and kaolin intake were measured at 3, 6, and 24 h postinjection.
# All data were expressed as means ± SEM.
# [2] = biological target: GFRAL ECD (Homo sapiens) (UniProt Q6UXV0); conditions: cited from earlier work
# [3] = biological target: T1, Recombinant His-tagged human GFRAL …; experiment: SPR; biotin-GRASP immobilised on a streptavidin-coated biotin sensor (Nicoya OpenSPR); GFRAL-ECD (20, 100, 200, 600 nM), GDF15 (1 uM) or RET (0.29 uM) as analyte; HBSS pH 7.4; 1:1 fit with local Bmax (TraceDrawer); conditions: both partners purified
# [4] = biological target: T2, Full-length human GFRAL on stably …; experiment: flow cytometry on cells; GRASPCy5 (0.1-1000 nM) in HBSS pH 7.4, 30 min at 37 °C, on HEK293 cells stably overexpressing full-length human GFRAL; untransfected HEK293 cells as control; conditions: one partner purified
# [5] = biological target: T1, Recombinant His-tagged human GFRAL …; experiment: SPR; GFRAL (S19-E351) immobilised by amine coupling (EDC/NHS) on a high-capacity carboxyl sensor (Nicoya OpenSPR); peptides or GDF15 as analyte; HBSS pH 7.4 running buffer without BSA; 20 uL/min; conditions: both partners purified
# [6] = GRASP 100 nmol/kg IP BID, Ondansetron 2 mg/kg IP, cisplatin 6 mg/kg IP, n = 10–16 per group
# [7] = GRASP 100 nmol/kg IP BID alone or with Ondansetron 2 mg/kg IP, no cisplatin
molecule,measurement,setting,value
Cc1nccn1CC1CCc2c(c3ccccc3n2C)C1=O (centres unmarked) [Ondansetron],effect on cisplatin-induced anorexia,[1]; [6],Neither Ond (2 mg/kg of IP) nor GRASP (100 nmol/kg of IP [BID]) alone had any impact
same,effect on cisplatin-induced kaolin intake,[1]; [6],significantly reduced cisplatin-induced kaolin intake
CC[C@H](C)[C@H](NC(=O)[C@H](CC(C)C)NC(=O)[C@H](CCC(=O)O)NC(=O)[C@H](CCC(=O)O)NC(=O)[C@H](CCCCN=[N+]=[N-])NC(=O)[C@@H](N)[C@@H](C)O)C(=O)N[C@@H](Cc1c[nH]cn1)C(=O)N[C@@H](C)C(=O)N[C@@H](Cc1c[nH]cn1)C(=O)N[C@@H](C)C(=O)N[C@@H](CC(=O)O)C(=O)N1CCC[C@H]1C(=O)N[C@@H](CCSC)C(=O)N[C@H](C(=O)N[C@@H](CC(C)C)C(=O)N[C@H](C(=O)N[C@@H](CCC(N)=O)C(=O)N[C@@H](CCCCN)C(=O)N[C@H](C(=O)N[C@@H](CC(=O)O)C(=O)N[C@H](C(=O)NCC(=O)N[C@H](C(=O)N[C@@H](CO)C(=O)N[C@@H](CC(C)C)C(=O)N[C@@H](CCC(N)=O)C(=O)N[C@H](C(=O)N[C@@H](Cc1ccc(O)cc1)C(=O)N[C@@H](CC(=O)O)C(N)=O)[C@@H](C)O)C(C)C)[C@@H](C)O)[C@@H](C)O)[C@@H](C)CC)C(C)C [GRASP] (H-T[Lys(N3)]EELIHAHADPMVLIQKTDTGVSLQTYD-NH2),impact on food or kaolin intake in healthy rats,[1]; [7],had no impact on food or kaolin intake in healthy rats
same,tolerability in healthy rats,[1]; [7],well-tolerated
GDF15 (from UniProt Q99988),Kd,[2],1 nM
B1,Kd,[3],74.1 nM
B2,Kd,[4],8.98 nM
B3,Kd,[5],179000 nM
